Laboratory results reported in US8846698B2, “Pyrrolo[2,3-d]pyrimidine tropomysin-related kinase inhibitors” (Pfizer Limited, priority 2011, dated 2014).
Structures can show the parent of a compound that is named as a salt.

Target: TRKA (Homo sapiens (Human), UniProt P04629)
Experiment: Isolated TRK enzyme assay (HTRF KinEASE-TK), TRKA
Format: biochemical
Settings: read-out: Trka enzyme (IC50)

Chain of TRKA (P04629 441-796): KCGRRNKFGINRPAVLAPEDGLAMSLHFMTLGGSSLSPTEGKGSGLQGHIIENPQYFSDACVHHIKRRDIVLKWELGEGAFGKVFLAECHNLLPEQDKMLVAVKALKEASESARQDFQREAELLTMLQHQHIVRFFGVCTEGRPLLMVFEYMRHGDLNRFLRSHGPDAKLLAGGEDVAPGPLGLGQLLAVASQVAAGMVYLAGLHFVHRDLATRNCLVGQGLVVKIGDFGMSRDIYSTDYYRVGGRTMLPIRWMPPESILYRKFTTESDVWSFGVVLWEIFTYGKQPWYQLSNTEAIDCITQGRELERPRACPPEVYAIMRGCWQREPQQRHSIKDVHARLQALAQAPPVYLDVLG

SMILES	IC50
CC(C)n1cc(C(=O)c2cncc(NC(=O)Cc3cccc(CN4CCC4)c3)c2)c2cncnc21 [Example 266, 2-[3-(azetidin-1-ylmethyl)phenyl]-N-{5-[(7-isopropyl-7H-pyrrolo[2,3-d]pyrimidin-5-yl)carbonyl]pyridin-3-yl}acetamide formate salt]	2950 nM
CC(C)n1cc(C(=O)c2cncc(NC(=O)Cc3cccc(CN4CC(F)C4)c3)c2)c2cncnc21 [Example 267, 2-{3-[(3-fluoroazetidin-1-yl)methyl]phenyl}-N-{5-[(7-isopropyl-7H-pyrrolo[2,3-d]pyrimidin-5-yl)carbonyl]pyridin-3-yl}acetamide]	2120 nM
CC(C)n1cc(C(=O)c2cncc(NC(=O)Cc3cccc(CN4CCOCC4)c3)c2)c2cncnc21 [Example 268, N-{5-[(7-isopropyl-7H-pyrrolo[2,3-d]pyrimidin-5-yl)carbonyl]pyridin-3-yl}-2-[3-(morpholin-4-ylmethyl)phenyl]acetamide formate salt]	579 nM
O=C(Cc1ccc(Cl)cc1)Nc1cncc(C(=O)c2cn(C(CO)CO)c3ncncc23)c1 [Example 270, 2-(4-chlorophenyl)-N-(5-(7-(1,3-dihydroxypropan-2-yl)-7H-pyrrolo[2,3-d]pyrimidine-5-carbonyl)pyridin-3-yl)acetamide]	343 nM
O=C(Nc1cncc(C(=O)c2cn(C(CO)CO)c3ncncc23)c1)c1cccc(OC(F)(F)F)c1 [Example 271, N-(5-(7-(1,3-dihydroxypropan-2-yl)-7H-pyrrolo[2,3-d]pyrimidine-5-carbonyl)pyridin-3-yl)-3-(trifluoromethoxy)benzamide]	39 nM
Cc1ccc2ccc(CC(=O)Nc3cncc(C(=O)c4cn(C(CO)CO)c5ncncc45)c3)cc2n1 [Example 275, N-[5-({7-[2-hydroxy-1-(hydroxymethyl)ethyl]-7H-pyrrolo[2,3-d]pyrimidin-5-yl}carbonyl)pyridin-3-yl]-2-(2-methylquinolin-7-yl)acetamide]	5100 nM
O=C(Cc1ccc(Cl)c(Cl)c1)Nc1cncc(C(=O)c2cn(C(CO)CO)c3ncncc23)c1 [Example 276, 2-(3,4-dichlorophenyl)-N-[5-({7-[2-hydroxy-1-(hydroxymethyl)ethyl]-7H-pyrrolo[2,3-d]pyrimidin-5-yl}carbonyl)pyridin-3-yl]acetamide]	295 nM
O=C(Cc1ccc(Cl)cc1Cl)Nc1cncc(C(=O)c2cn(C(CO)CO)c3ncncc23)c1 [Example 278, 2-(2,4-dichlorophenyl)-N-[5-({7-[2-hydroxy-1-(hydroxymethyl)ethyl]-7H-pyrrolo[2,3-d]pyrimidin-5-yl}carbonyl)pyridin-3-yl]acetamide]	54.3 nM
O=C(Cc1cccc(OC(F)(F)F)c1)Nc1cncc(C(=O)c2cn(C(CO)CO)c3ncncc23)c1 [Example 279, N-[5-({7-[2-hydroxy-1-(hydroxymethyl)ethyl]-7H-pyrrolo[2,3-d]pyrimidin-5-yl}carbonyl)pyridin-3-yl]-2-[3-(trifluoromethoxy)phenyl]acetamide]	439 nM
O=C(Nc1cncc(C(=O)c2cn(C(CO)CO)c3ncncc23)c1)c1cc(F)cc(C(F)(F)F)c1 [Example 281, 3-fluoro-N-[5-({7-[2-hydroxy-1-(hydroxymethyl)ethyl]-7H-pyrrolo[2,3-d]pyrimidin-5-yl}carbonyl)pyridin-3-yl]-5-(trifluoromethyl)benzamide]	161 nM
O=C(Cn1ccc(C(F)(F)F)n1)Nc1cncc(C(=O)c2cn(C(CO)CO)c3ncncc23)c1 [Example 283, N-[5-({7-[2-hydroxy-1-(hydroxymethyl)ethyl]-7H-pyrrolo[2,3-d]pyrimidin-5-yl}carbonyl)pyridin-3-yl]-2-[3-(trifluoromethyl)-1H-pyrazol-1-yl]acetamide]	297 nM
CC(C)n1cc(C(=O)c2cncc(NC(=O)[C@@H](Cc3ccc(C(=O)c4ccccc4)cc3)NC(=O)OC(C)(C)C)c2)c2cncnc21 [Example 284, 4-benzoyl-N-alpha-(tert-butoxycarbonyl)-N-{5-[(7-isopropyl-7H-pyrrolo[2,3-d]pyrimidin-5-yl)carbonyl]pyridin-3-yl}-L-phenylalaninamide]	2020 nM
CC(C)n1cc(C(=O)c2cncc(NC(=O)[C@H](N)Cc3ccc(C(=O)c4ccccc4)cc3)c2)c2cncnc21 [Example 285, 4-benzoyl-N-{5-[(7-isopropyl-7H-pyrrolo[2,3-d]pyrimidin-5-yl)carbonyl]pyridin-3-yl}-D-phenylalaninamide]	7820 nM
CC(C)n1cc(C(=O)c2cncc(NC(=O)[C@@H](N)Cc3ccc(C(=O)c4ccccc4)cc3)c2)c2cncnc21 [Example 287, 4-benzoyl-N-{5-[(7-isopropyl-7H-pyrrolo[2,3-d]pyrimidin-5-yl)carbonyl]pyridin-3-yl}-L-phenylalaninamide]	4350 nM
CC(C)n1cc(C(=O)c2cncc(NC(=O)Cc3cccc(C(=O)c4ccccc4)c3)c2)c2cncnc21 [Example 288, 2-(3-benzoylphenyl)-N-(5-(7-isopropyl-7H-pyrrolo[2,3-d]pyrimidine-5-carbonyl)pyridin-3-yl)acetamide]	43.1 nM
CC(C)n1cc(C(=O)c2cncc(NC(=O)Cc3ccc(C(=O)c4ccccc4)cc3)c2)c2cncnc21 [Example 289, 2-(4-benzoylphenyl)-N-(5-(7-isopropyl-7H-pyrrolo[2,3-d]pyrimidine-5-carbonyl)pyridin-3-yl)acetamide]	1370 nM
CC(C)n1cc(C(=O)c2cncc(NC(=O)c3cccc(C4(C(F)(F)F)N=N4)c3)c2)c2cncnc21 [Example 290, N-{5-[(7-isopropyl-7H-pyrrolo[2,3-d]pyrimidin-5-yl)carbonyl]pyridin-3-yl}-3-[3-(trifluoromethyl)-3H-diaziren-3-yl]benzamide]	167 nM
Cn1cc(C(=O)c2cncc(NC(=O)Nc3ccc(Cl)cc3)c2)c2cncnc21 [Example 293, 1-(4-chlorophenyl)-3-{5-[(7-methyl-7H-pyrrolo[2,3-d]pyrimidin-5-yl)carbonyl]pyridin-3-yl}urea]	20.2 nM
Cn1cc(C(=O)c2cncc(NC(=O)Nc3ccc(C(F)(F)F)cc3)c2)c2cncnc21 [Example 294, 1-{5-[(7-methyl-7H-pyrrolo[2,3-d]pyrimidin-5-yl)carbonyl]pyridin-3-yl}-3-[4-(trifluoromethyl)phenyl]urea]	61.4 nM
Cn1cc(C(=O)c2cncc(NC(=O)Nc3cccc(C(F)(F)F)c3)c2)c2cncnc21 [Example 295, 1-{5-[(7-methyl-7H-pyrrolo[2,3-d]pyrimidin-5-yl)carbonyl]pyridin-3-yl}-3-[3-(trifluoromethyl)phenyl]urea]	31.9 nM

Further molecules by falling IC50, results first:

IC50	SMILES
3230 nM	CC(C)n1cc(C(=O)c2cncc(NC(=O)c3ccc(C4(C(F)(F)F)N=N4)cc3)c2)c2cncnc21 [Example 291, N-{5-[(7-isopropyl-7H-pyrrolo[2,3-d]pyrimidin-5-yl)carbonyl]pyridin-3-yl}-4-[3-(trifluoromethyl)-3H-diaziren-3-yl]benzamide]
1010 nM	O=C(Cc1ccc(Cl)cn1)Nc1cncc(C(=O)c2cn(C(CO)CO)c3ncncc23)c1 [Example 282, 2-(5-chloropyridin-2-yl)-N-[5-({7-[2-hydroxy-1-(hydroxymethyl)ethyl]-7H-pyrrolo[2,3-d]pyrimidin-5-yl}carbonyl)pyridin-3-yl]acetamide]
697 nM	O=C(Cc1ccc2cccnc2c1)Nc1cncc(C(=O)c2cn(C(CO)CO)c3ncncc23)c1 [Example 272, N-(5-(7-(1,3-dihydroxypropan-2-yl)-7H-pyrrolo[2,3-d]pyrimidine-5-carbonyl)pyridin-3-yl)-2-(quinolin-7-yl)acetamide]
557 nM	O=C(Nc1cncc(C(=O)c2cn(C(CO)CO)c3ncncc23)c1)c1cccc(C(F)(F)F)c1 [Example 269, N-(5-(7-(1,3-dihydroxypropan-2-yl)-7H-pyrrolo[2,3-d]pyrimidine-5-carbonyl)pyridin-3-yl)-3-(trifluoromethyl)benzamide]
498 nM	O=C(Cc1ccc(OC(F)(F)F)cc1)Nc1cncc(C(=O)c2cn(C(CO)CO)c3ncncc23)c1 [Example 280, N-[5-({7-[2-hydroxy-1-(hydroxymethyl)ethyl]-7H-pyrrolo[2,3-d]pyrimidin-5-yl}carbonyl)pyridin-3-yl]-2-[4-(trifluoromethoxy)phenyl]acetamide]
434 nM	O=C(Cc1ccc(C(F)(F)F)c(F)c1)Nc1cncc(C(=O)c2cn(C(CO)CO)c3ncncc23)c1 [Example 277, 2-[3-fluoro-4-(trifluoromethyl)phenyl]-N-[5-({7-[2-hydroxy-1-(hydroxymethyl)ethyl]-7H-pyrrolo[2,3-d]pyrimidin-5-yl}carbonyl)pyridin-3-yl]acetamide]
342 nM	O=C(Cc1ccc(C(F)(F)F)cc1)Nc1cncc(C(=O)c2cn(C(CO)CO)c3ncncc23)c1 [Example 273, N-(5-(7-(1,3-dihydroxypropan-2-yl)-7H-pyrrolo[2,3-d]pyrimidine-5-carbonyl)pyridin-3-yl)-2-(4-(trifluoromethyl)phenyl)acetamide]
299 nM	CC(C)n1cc(C(=O)c2cncc(N(C)C(=O)Cc3ccc(Cl)cc3)c2)c2cncnc21 [Example 297, 2-(4-chlorophenyl)-N-{5-[(7-isopropyl-7H-pyrrolo[2,3-d]pyrimidin-5-yl)carbonyl]pyridin-3-yl}-N-methylacetamide]
47.7 nM	Cn1cc(C(=O)c2cncc(NC(=O)Nc3ccc(OC(F)(F)F)cc3)c2)c2cncnc21 [Example 296, 1-{5-[(7-methyl-7H-pyrrolo[2,3-d]pyrimidin-5-yl)carbonyl]pyridin-3-yl}-3-[4-(trifluoromethoxy)phenyl]urea]
38.6 nM	O=C(Cc1cccc(C(F)(F)F)c1)Nc1cncc(C(=O)c2cn(C(CO)CO)c3ncncc23)c1 [Example 274, N-(5-(7-(1,3-dihydroxypropan-2-yl)-7H-pyrrolo[2,3-d]pyrimidine-5-carbonyl)pyridin-3-yl)-2-(3-(trifluoromethyl)phenyl)acetamide]
37.7 nM	CC(C)n1cc(C(=O)c2cncc(NC(=O)c3cccc(C(=O)C(F)(F)F)c3)c2)c2cncnc21 [Example 292, N-{5-[(7-isopropyl-7H-pyrrolo[2,3-d]pyrimidin-5-yl)carbonyl]pyridin-3-yl}-3-(trifluoroacetyl)benzamide]
